Assay results published in patent US7776862B2, “Pyridyl and phenyl substituted piperazine-piperidines with CXCR3 antagonist activity” (Schering Corporation, priority 2005, dated 2010).

Target: T1, human CXCR3 (N-delta 4) (Homo sapiens, UniProt P49682)
T1 construct: CD8 leader; Flag tag; expressed in transfected cells; membranes used
T1 sequence (P49682 5-368 limits assumed): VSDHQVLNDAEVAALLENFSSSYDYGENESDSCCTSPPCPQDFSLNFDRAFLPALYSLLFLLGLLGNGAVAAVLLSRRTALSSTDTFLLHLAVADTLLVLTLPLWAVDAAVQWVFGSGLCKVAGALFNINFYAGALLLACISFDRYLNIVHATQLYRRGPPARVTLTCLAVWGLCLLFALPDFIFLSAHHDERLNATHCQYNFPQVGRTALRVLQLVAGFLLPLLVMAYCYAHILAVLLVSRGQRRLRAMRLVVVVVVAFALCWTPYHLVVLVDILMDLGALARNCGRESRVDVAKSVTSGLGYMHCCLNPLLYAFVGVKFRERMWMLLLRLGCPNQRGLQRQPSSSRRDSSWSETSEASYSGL
Assay: Human CXCR3 (N-delta 4) scintillation proximity assay (SPA), [125I] IP-10 binding
Settings: IC50 rating; Ba/F3-hCXCR3 (N-delta 4) membranes, 25 pM [125I] IP-10
Procedure, shortened: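 Membranes from mouse Ba/F3 pro-B cells stably expressing Flag-tagged human CXCR3 (N-delta 4) were coupled to SPA beads. IP-10 was added together with titrated compounds to start the reaction, and bound radioligand was read by scintillation proximity.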

IC50 [nM] | SMILES
> 100 | O=C(NC1CCCC1)c1cnc(N2CCN(C3CCN(Cc4ccc(Br)cc4)CC3)CC2)c(Cl)c1 [compound 37]
> 100 | N#Cc1ccc(C(=O)N2CCC(N3CCN(c4ncc(C(=O)NCc5ccc(F)c(Cl)c5)cc4Cl)CC3)CC2)cc1 [compound 83]
25 to 100 | N#Cc1ccc(CN2CCC(N3CCN(c4ncc(C(=O)NCc5ccc(Cl)cc5)cc4Cl)CC3)CC2)cc1 [compound 126]
> 100 | O=C(NCc1cc(Cl)cc(Cl)c1)c1cnc(N2CCN(C3CCN(Cc4ccc(Cl)c(F)c4)CC3)CC2)c(Cl)c1 [compound 80]
< 25 | CC[C@H]1CN(c2ncc(CNS(=O)(=O)CC)cc2Cl)CCN1C1CCN(Cc2ccc(Cl)cc2F)CC1 [compound 386]
25 to 100 | O=C(NCc1ccc(Cl)c(Cl)c1)c1cnc(N2CCN(C3CCN(Cc4ccc(Br)cc4)CC3)CC2)c(Br)c1 [compound 284]
< 25 | CC[C@H]1CN(c2ncc(C(=O)NC)cc2Cl)CCN1C1CCN(C(=O)c2ccc(Cl)cc2)CC1 [compound 259]
> 100 | CC(C)C[C@H]1CN(c2ncc(C(=O)NC(C)C)cc2Cl)CCN1C1CCN(Cc2ccc(Cl)cc2)CC1 [compound 196]
25 to 100 | O=C(NCCOc1ccccc1)c1cnc(N2CCN(C3CCN(Cc4ccc(Cl)cc4)CC3)CC2)c(Br)c1 [compound 283]
25 to 100 | O=C(NCc1ccc(F)cc1)c1cnc(N2CCN(C3CCN(Cc4ccc(Br)cc4)CC3)CC2)c(Cl)c1 [compound 113]
25 to 100 | CC[C@H]1CN(c2ncc(C(=O)NC(C)C)cc2Cl)CCN1C1CCN(C(=O)c2ccc(Cl)cc2)CC1 [compound 160]
25 to 100 | C[C@@H]1CN(c2ncc(C(=O)NCc3ccc(F)c(F)c3)cc2Cl)CCN1C1CCN(Cc2ccc(Cl)cc2)CC1 [compound 152]
